Results from patent US20210038587A1, “METHODS AND COMPOSITIONS FOR TREATING NON-ERK MAPK PATHWAY INHIBITOR-RESISTANT CANCERS” (BIOMED VALLEY DISCOVERIES, INC., priority 2013, published 2021).

Tests used:
Colo205 = assay: Reverse Phase Protein Analysis (RPPA); assay type: cell-based, human; settings: % change from DMSO (matched cell line)
MIAPaCa-2 = assay: Reverse Phase Protein Analysis (RPPA); assay type: cell-based; settings: MIAPaca2; % change from DMSO (matched cell line)
[1] = tested on: A375, MIAPaCa-2, HCT116, Colo205, HT-29, and AN3Ca cells; assay: Reverse Phase Protein Analysis (RPPA), all six cell lines; assay type: cell-based; settings: 10 μM, 6 hours
Procedure: (§1) Control wells were treated with DMSO at 0.1% (v/v) for 6 hours prior to cell lysate generation. Samples were then analyzed using reverse-phase protein microarray technology (Theranostics Health).
(§2) Cell lines with common alterations in BRAF and RAS were assayed: BRAF^V600E mutant lines A375, Colo205, and HT29; KRAS^G12C-mutant cell line MIAPACa-2; KRAS^G13D-mutant cell line HCT116; and AN3Ca with atypical HRAS^F82L mutation. Changes in protein levels are shown as a percentage change from dimethyl sulfoxide (DMSO)-treated parental control (FIG. 32A and Table 23).

HCT116 = assay: Reverse Phase Protein Analysis (RPPA); assay type: cell-based, human; settings: % change from DMSO (matched cell line)
Procedure: as §1, §2

A375 = assay: Reverse Phase Protein Analysis (RPPA); assay type: cell-based, human; settings: % change from DMSO (matched cell line)
Procedure: as §1, §2

Cc1cnc(Nc2ccc(F)cc2Cl)nc1-c1c[nH]c(C(=O)N[C@H](CO)c2cccc(Cl)c2)c1 [Vx-11e]
Avg (4ebp1 T70) (Colo205): −43.71% | Avg (Akt S473) (Colo205): −10.96% | Avg (Akt) (Colo205): −12.51% | Avg (Bad S136) (Colo205): −1.01% | Avg (Bad S155) (Colo205): −9.72% | Avg (Bak) (Colo205): −2.79% | Avg (Bax) (Colo205): −9.16% | Avg (Bcl 2) (Colo205): −14.09% | Avg (Bcl2 S70) (Colo205): −20.82% | Avg (Bcl 2 T56) (Colo205): −12.02% | Avg (Bim) (Colo205): 34.1% | Avg (CREB S133) (Colo205): −10.64% | Avg (Caspase 3 CL D175) (Colo205): −2.67% | Avg (Caspase 7 Cl D198) (Colo205): 0.03% | Avg (Chk1) (Colo205): −9.16% | Avg (Chk1 S345) (Colo205): 13.12% | Avg (Cyclin D1) (Colo205): −39.79% | Avg (ERK 1 2) (Colo205): −12.32% | Avg (ERK 1 2 T202 Y204) (Colo205): 98.48% | Avg (MAK1 S360) (Colo205): 6.22% | Avg (Mcl1) (Colo205): −10.64% | Avg (Raptor S792) (Colo205): 0.2% | Avg (Raptor) (Colo205): −0.05% | Avg (Rictor) (Colo205): 1.65% | Avg (Stat1) (Colo205): −6.1% | Avg (Stat3) (Colo205): −7.96% | Avg (bad S112) (Colo205): −30.28% | Avg (c Fos) (Colo205): −19.34% | Avg (c Myc) (Colo205): −7.42% | Avg (mTOR S2448) (Colo205): −8.52% | Avg (mTOR S2481) (Colo205): −9.43% | Avg (mTOR) (Colo205): 3.62% | Avg (p70 S6 Kinase) (Colo205): −3.42% | Avg (p90 RSK S380) (Colo205): −58.6% | Avg(S6 Ribo Prot S235 236) (Colo205): −93.04% | Avg(S6 Ribo Prot S240 244) (Colo205): −94.89% | Avg(Tuberin TSC2 Y1571) (Colo205): −9.45% | Avg(p70 S6 Kinase S371 S394) (Colo205): −13.64% | Avg(p70 S6 Kinase T389 T412) (Colo205): −28% | Avg (4ebp1 T70) (MIAPaCa-2): −15.72% | Avg (Akt S473) (MIAPaCa-2): 0.48% | Avg (Akt) (MIAPaCa-2): −0.15% | Avg (Bad S136) (MIAPaCa-2): 0.36% | Avg (Bad S155) (MIAPaCa-2): 7.38% | Avg (Bak) (MIAPaCa-2): −1.93% | Avg (Bax) (MIAPaCa-2): 4.33% | Avg (Bcl 2) (MIAPaCa-2): −2.3% | Avg (Bcl2 S70) (MIAPaCa-2): −7.83% | Avg (Bcl 2 T56) (MIAPaCa-2): −9.86% | Avg (Bim) (MIAPaCa-2): 2.1% | Avg (CREB S133) (MIAPaCa-2): −13.28% | Avg (Caspase 3 CL D175) (MIAPaCa-2): 6.17% | Avg (Caspase 7 Cl D198) (MIAPaCa-2): −0.32% | Avg (Chk1) (MIAPaCa-2): −1.8% | Avg (Chk1 S345) (MIAPaCa-2): 2.09% | Avg (Cyclin D1) (MIAPaCa-2): −33.96% | Avg (ERK 1 2) (MIAPaCa-2): −14.85% | Avg (ERK 1 2 T202 Y204) (MIAPaCa-2): 729.27% | Avg (MAK1 S360) (MIAPaCa-2): −0.87% | Avg (Mcl1) (MIAPaCa-2): −6.58% | Avg (Raptor S792) (MIAPaCa-2): −3.74% | Avg (Raptor) (MIAPaCa-2): 5.4% | Avg (Rictor) (MIAPaCa-2): −13.24% | Avg (Stat1) (MIAPaCa-2): −1.64% | Avg (Stat3) (MIAPaCa-2): 0.61% | Avg (bad S112) (MIAPaCa-2): −20.85% | Avg (c Fos) (MIAPaCa-2): −4.43% | Avg (c Myc) (MIAPaCa-2): −5.94% | Avg (mTOR S2448) (MIAPaCa-2): −5.38% | Avg (mTOR S2481) (MIAPaCa-2): −3.12% | Avg (mTOR) (MIAPaCa-2): −1.58% | Avg (p70 S6 Kinase) (MIAPaCa-2): −9.27% | Avg (p90 RSK S380) (MIAPaCa-2): −39.91% | Avg(S6 Ribo Prot S235 236) (MIAPaCa-2): −63.36% | Avg(S6 Ribo Prot S240 244) (MIAPaCa-2): −74.82% | Avg(Tuberin TSC2 Y1571) (MIAPaCa-2): −0.01% | Avg(p70 S6 Kinase S371 S394) (MIAPaCa-2): −30.35% | Avg(p70 S6 Kinase T389 T412) (MIAPaCa-2): −30.66% | pERK1/2 (ERK1/2-T202, -Y204) [1]: markedly increased pERK1/2 | Avg (4ebp1 T70) (HCT116): 10.35% | Avg (Akt S473) (HCT116): −16.94% | Avg (Akt) (HCT116): −18.15% | Avg (Bad S136) (HCT116): −5.39% | Avg (Bad S155) (HCT116): −15.59% | Avg (Bak) (HCT116): −3.07% | Avg (Bax) (HCT116): −20.46% | Avg (Bcl 2) (HCT116): −17.3% | Avg (Bcl2 S70) (HCT116): −17.79% | Avg (Bcl 2 T56) (HCT116): −25% | Avg (Bim) (HCT116): 4.82% | Avg (CREB S133) (HCT116): −9.17% | Avg (Caspase 3 CL D175) (HCT116): −5.19% | Avg (Caspase 7 Cl D198) (HCT116): −11.41% | Avg (Chk1) (HCT116): −8.63% | Avg (Chk1 S345) (HCT116): −16.49% | Avg (Cyclin D1) (HCT116): −72.72% | Avg (ERK 1 2) (HCT116): −24.01% | Avg (ERK 1 2 T202 Y204) (HCT116): 873.33% | Avg (MAK1 S360) (HCT116): −13.73% | Avg (Mcl1) (HCT116): −7.79% | Avg (Raptor S792) (HCT116): −11.21% | Avg (Raptor) (HCT116): −4.32% | Avg (Rictor) (HCT116): 1.78% | Avg (Stat1) (HCT116): −14.06% | Avg (Stat3) (HCT116): −7.76% | Avg (bad S112) (HCT116): −23.88% | Avg (c Fos) (HCT116): −13.89% | Avg (c Myc) (HCT116): −18.56% | Avg (mTOR S2448) (HCT116): −10.12% | Avg (mTOR S2481) (HCT116): −17.82% | Avg (mTOR) (HCT116): −0.59% | Avg (p70 S6 Kinase) (HCT116): −4.45% | Avg (p90 RSK S380) (HCT116): −33.05% | Avg(S6 Ribo Prot S235 236) (HCT116): −90.03% | Avg(S6 Ribo Prot S240 244) (HCT116): −86.06% | Avg(Tuberin TSC2 Y1571) (HCT116): −16.51% | Avg(p70 S6 Kinase S371 S394) (HCT116): −9.89% | Avg(p70 S6 Kinase T389 T412) (HCT116): −20.99% | Avg (4ebp1 T70) (A375): 23.33% | Avg (Akt S473) (A375): 93.85% | Avg (Akt) (A375): −30.34% | Avg (Bad S136) (A375): 5.06% | Avg (Bad S155) (A375): −6.3% | Avg (Bak) (A375): 0.65% | Avg (Bax) (A375): −5.05% | Avg (Bcl 2) (A375): −9.93% | Avg (Bcl2 S70) (A375): −4.02% | Avg (Bcl 2 T56) (A375): −7.53% | Avg (Bim) (A375): 12.32% | Avg (CREB S133) (A375): −15.8% | Avg (Caspase 3 CL D175) (A375): −9.27% | Avg (Caspase 7 Cl D198) (A375): −7.62% | Avg (Chk1) (A375): −0.86% | Avg (Chk1 S345) (A375): 0.56% | Avg (Cyclin D1) (A375): −85.46% | Avg (ERK 1 2) (A375): −5.39% | Avg (ERK 1 2 T202 Y204) (A375): 128.93% | Avg (MAK1 S360) (A375): −7.63% | Avg (Mcl1) (A375): 1.6% | Avg (Raptor S792) (A375): −0.86% | Avg (Raptor) (A375): −12.7% | Avg (Rictor) (A375): −8.16% | Avg (Stat1) (A375): 0.23% | Avg (Stat3) (A375): 1.71% | Avg (bad S112) (A375): −69.29% | Avg (c Fos) (A375): −13.65% | Avg (c Myc) (A375): −0.97% | Avg (mTOR S2448) (A375): −21.66% | Avg (mTOR S2481) (A375): −2.9% | Avg (mTOR) (A375): −3.31% | Avg (p70 S6 Kinase) (A375): −6.42% | Avg (p90 RSK S380) (A375): −65.25% | Avg(Tuberin TSC2 Y1571) (A375): −3.55% | Avg(p70 S6 Kinase S371 S394) (A375): −17.32% | Avg(p70 S6 Kinase T389 T412) (A375): −25.54%
